{"source": "patent US6255324A", "about": "“Amino-and mercurio-substituted 4',5'-dihydropsoralens and therapeutical uses thereof” (priority 1998, dated 2001)", "key": {"Aspergillus niger": {"system": "Aspergillus niger", "test": "Fungicidal assay, MIC against Aspergillus niger in MSY broth", "type": "cell-based", "details": "Table II, four days at 28° C, in the dark, no unit in table (ppm levels)", "experimental": "The antifungal activities of compounds synthesized were measured by determining the inhibition of growth of Aspergillus niger in a standard liquid medium. The liquid growth medium is described as a solution of mineral salts and yeast extract (MSY). The MSY broth was prepared as described in ASTM G21-70, and amended with glucose (10 g/l) and yeast extract (1 g/l). An aliquot ([…]) of sterile medium was dispensed into each test well of a standard 96 well microplate (Corning No. 430247). Stock solutions of test compounds were prepared by dissolving the materials in 9:1 (v/v) solutions of acetone:methanol. Appropriate volumes of stock solutions were added to the test wells in order to achieve the desired ppm levels. Each test well (plus controls) was then inoculated with […] of a standardized suspension of Aspergillus niger. The cell suspension was prepared by suspending viable cells from a slant of potato dextrose agar into sterile, deionized water. The suspension was then adjusted to provide OD686 =0.28. This density contains approximately 2.5×10^7 CFU (colony forming units)/ml. The microplates were incubated in the dark for four days at 28° C. The optical density for each well at 686 nm was then recorded automatically using a SpectraMax 340 microplate reader (Molecular Devices Corp., Sunnyvale, Calif.). All wells were visually inspected in order to corroborate data from the instrument.\nThe antifungal activity was measured as minimum inhibitory concentrations or MIC of the 5'-substituted-4',5'-dihydropsoralens."}, "Chlorella vulgaris": {"system": "Chlorella vulgaris", "test": "Algicidal assay, MIC against Chlorella in modified Allen's medium", "type": "cell-based", "details": "Table III, 14 days, 26 to 28° C, no unit in table (ppm)", "experimental": "To assay the activity of the 5'-substituted-4',5'-dihydropsoralens of the invention against Chlorella, the Allen method (A. A. Allen, […], Journal of Phycology, 4, 1-4) was employed. […] The minimum inhibitory concentration (MIC) of the compounds tested against the fungus Aspergillus niger using an MSY broth is shown in Table II.\nTest tubes containing modified Allen's medium were treated with increasing dosages of the compound to be tested and inoculated with a suspension of algal cells. After fourteen days of incubation, algal growth was rated as positive or negative. The minimum inhibitory concentration (MIC) of the compound is the smallest dosage showing negative algal growth.\nThe apparatus required consisted of sterilized test tubes, 18-150 mm and an incubator, capable of a constant (±2° C.) temperature within 26 to 28° C. The following procedure was used:\n(1) Stock solutions (g/200 g deionized water each) were generated with: K2 HPO4, 1.50 g; MgSO4, 7H2 O, 1.50 g; Na2 CO3, 0.80 g; CaCl2 2H2 O, 0.50 g; Na2 SiO3 9H2 O, 1.16 g, and Citric acid, 1.20 g.\n(3) The modified Allen's medium was prepared in a volumetric flask by the addition of 1.5 g NaNO3, 5.0 mL stock solution K2 HPO4, 5.0 mL stock solution MgSO4 -- 7H2 O, 5.0 mL Stock solution Na2 CO3, 10.0 mL stock solution CaCl2 2H2 O, 10.0 mL stock solution Na2 SiO3 9H2 O, 1.0 mL stock solution Citric acid and 1.0 mL stock solution PIV metal with enough deionized water to make 1000 mL of medium (Allen, 1968). The pH was adjusted to 7.8 and 5 mL of medium is added to each test tube. The tubes were sterilized in the autoclave for 20 minutes at 15 psi at 121° C. The test tubes were allowed to cool to 45-50° C. before adding the test compound and the inoculurn to the medium.\n(4) The inoculum was a cell suspension from a 14-day-old culture of Chlorella vulgaris (UTEX 26, University of Texas) that was grown in modified Allen's medium.\nThe concentration of the stock solution in water or acetone of the compound to be tested is dependent on the largest dose required to be tested. Dilutions of the stock solution were made so that 100 μL of the stock solution of the corresponiding dilution was added per test tube. 100 μL of the solvent was added to the control to prepare the stock solution.\nThe inoculation consists of the addition of 100 μL of inoculurn per test tube.\nThe incubation of the control test tube and the test tubes containing compound and inoculum occurred in an incubator set between 26 to 28° C., with the temperature not varying more than ±2° C. Light was provided by plant growth fluorescent tubes and the test tubes were allowed to stand in the incubator for 14 days.\nRating of the test tubes containing different dosages of the compound will be positive or negative. […] If the medium in the rubes remains colorless, a negative (not contaminated) rating is given. The control is always positive. The minimum inhibitory concentration (MIC) of the compound is determined to be the smallest dosage showing negative algal growth."}, "PAM 212 keratinocytes [1]": {"system": "PAM 212 keratinocytes", "test": "PAM 212 keratinocyte growth inhibition (photo-toxicity with UVA / dark-toxicity without light)", "type": "cell-based"}, "PAM 212 keratinocytes [2]": {"system": "PAM 212 keratinocytes", "test": "PAM 212 keratinocyte growth inhibition (photo-toxicity with UVA / dark-toxicity without light)", "type": "cell-based", "details": "UVA 320-400 nm, 1.28 J/cm2, growth 4-5 days", "experimental": "Representative examples of the compounds described and claimed herein were tested in this assay for biological activity and found to be potent inhibitors of cell growth. Inhibition of cell growth was rapid, dependent on concentration, and required light activation. […] A description of this assay follows.\nThe photobiological activity was assayed using a keratinocyte cell line grown in a monolayer culture. In this assay, PAM 212 keratinocytes were grown in Dulbecco's Modified Eagle's medium supplemented with 10% newborn calf serum in a 5% carbon dioxide incubator. Cells were inoculated into 6-well Falcon plastic culture dishes at 25,000 cells per well. After 24 hours, the medium was charged to fresh growth medium supplemented with increasing concentrations of the test compounds or the control medium. Controls and test concentrations were analyzed in triplicate.\nThese plates were then incubated in a 37 degree C. carbon dioxide incubator. After 30 minutes culture plates were exposed to UVA light (UVA, 320-400 nm) emitted from a bank of four BLB fluorescent light tubes (F40 BL, Sylvania) placed approximately 10 cm above the cell culture plates. The incident light on the culture plates was 2.4 mW/cm^2 as measured with an International Light UV radiometer, Model IL 442A. The cells were exposed to 1.28 J/square centimeter of UVA.\nAfter completion of the irradiation phase, the cell culture medium was drained, the cells refed with fresh growth medium and then re-incubated in the carbon dioxide incubator to allow for cell growth. After 4-5 days of growth the culture plates were removed from the incubator and the cell culture medium was drained. The cells were detached from the plates with trypsin and counted in a Coulter Counter. For control cells or for cells treated with test compounds, cell growth was determined as a percentage of control. […] This value is shown in Table I for a variety of phototherapeutics."}, "[3]": {"system": "Mycobacterium tuberculosis H37Rv", "test": "Antituberculosis primary in vitro screen, BACTEC 460", "type": "cell-based, Mycobacterium tuberculosis H37Rv ATCC 27294", "details": "12.5 μg/mL, 37° C"}}, "note": "Like-named read-outs stand apart in the source and are kept apart here."}
{"smiles": "[I][Hg][CH2]C1Cc2ccccc2O1", "note": "(centres unmarked) [T = HgI, 2-Iodomercurimethyl-2,3-dihydrobenzofuran]", "values": [{"measurement": "MIC", "setting": "Aspergillus niger", "result": "< 8"}, {"measurement": "MIC", "setting": "Chlorella vulgaris", "result": 10}, {"measurement": "IC50", "setting": "PAM 212 keratinocytes [1]", "result": 12, "unit": "µM"}, {"measurement": "IC50", "setting": "PAM 212 keratinocytes [2]", "result": 5.7, "unit": "µM"}, {"measurement": "Anti-tubercular Activity (% inhibition)", "setting": "[3]", "result": 99, "unit": "%"}]}
